From patent publication US20260138958A1, “SUBSTITUTED N-PHENYLURACILS AND SALTS THEREOF, AND USE THEREOF AS HERBICIDAL ACTIVE SUBSTANCES” (Bayer Aktiengesellschaft, priority 2022, published 2026)

Columns and labels:
Type in all cases: in vivo
[1] = system: Viola tricolor (VIOTR); test: Post-emergence herbicidal action, greenhouse pot test
Protocol: (§1) Seeds of monocotyledonous and dicotyledonous weeds and crop plants were placed in sandy loam in plastic or wood-fibre pots, covered with soil and cultivated in a greenhouse under controlled growth conditions. 2 to 3 weeks after sowing, the test plants were treated at the one-leaf stage. The compounds of the invention, formulated in the form of wettable powders (WP) or as emulsion concentrates (EC), were then sprayed onto the green parts of the plants as aqueous suspension or emulsion with addition of 0.5% additive at a water application rate of 600 l/ha (converted). After the test plants had been kept in the greenhouse under optimum growth conditions for about 3 weeks, the activity of the preparations was rated visually in comparison to untreated controls. For example, 100% activity=the plants have died, 0% activity=like control plants.

[2] = system: Abutilon theophrasti (ABUTH); test: as above
Protocol: as §1

[3] = system: Tripleurospermum inodorum (MATIN); test: as above
Protocol: as §1

[4] = system: Pharbitis purpurea (PHBPU); test: as above
Protocol: as §1

[5] = system: Lolium rigidum (LOLRI); test: as above
Protocol: as §1

[6] = system: Amaranthus retroflexus (AMARE); test: as above
Protocol: as §1

[7] = system: Veronica persica (VERPE); test: as above
Protocol: as §1

[8] = system: Bassia scoparia (KCHSC); test: as above
Protocol: as §1

[9] = system: Polygonum convolvulus (POLCO); test: as above
Protocol: as §1

[10] = system: Echinochloa crus-galli (ECHCG); test: as above
Protocol: as §1

[11] = system: Setaria viridis (SETVI); test: as above
Protocol: as §1

[12] = system: Digitaria sanguinalis (DIGSA); test: as above
Protocol: as §1

[13] = system: Alopecurus myosuroides (ALOMY); test: as above
Protocol: as §1

[14] = system: Triticum aestivum (TRZAS); test: Post-emergence crop plant compatibility, greenhouse pot test; conditions: crop plant, post-emergence, 1.25 g/ha
Protocol: as §1
The observed effects on selected crop plants are reported here in comparison to the untreated controls (values in %).

| Structure (SMILES) | Post-emergence effect at 5 g/ha against VIOTR in % [1] [%] | Post-emergence effect at 20 g/ha against VIOTR in % [1] [%] | Post-emergence effect at 1.25 g/ha against ABUTH in % [2] [%] | Post-emergence effect at 5 g/ha against ABUTH in % [2] [%] | Post-emergence effect at 20 g/ha against ABUTH in % [2] [%] | Post-emergence effect at 20 g/ha against MATIN in % [3] [%] | Post-emergence effect at 1.25 g/ha against PHBPU in % [4] [%] | Post-emergence effect at 5 g/ha against PHBPU in % [4] [%] | Post-emergence effect at 20 g/ha against PHBPU in % [4] [%] | Post-emergence effect at 1.25 g/ha against AMARE in % [6] [%] | Post-emergence effect at 5 g/ha against AMARE in % [6] [%] | Post-emergence effect at 20 g/ha against AMARE in % [6] [%] | Post-emergence effect at 5 g/ha against VERPE in % [7] [%] | Post-emergence effect at 20 g/ha against VERPE in % [7] [%] | Post-emergence effect at 1.25 g/ha against KCHSC in % [8] [%] | Post-emergence effect at 5 g/ha against KCHSC in % [8] [%] | Post-emergence effect at 20 g/ha against KCHSC in % [8] [%] | Post-emergence effect at 20 g/ha against POLCO in % [9] [%] | Post-emergence effect at 5 g/ha against ECHCG in % [10] [%] | Post-emergence effect at 20 g/ha against ECHCG in % [10] [%] | further results |
| --- | --- | --- | --- | --- | --- | --- | --- | --- | --- | --- | --- | --- | --- | --- | --- | --- | --- | --- | --- | --- | --- |
| Cn1c(C(F)(F)F)cc(=O)n(-c2cc(Oc3ccccc3OCC(=O)OC(C#N)C3CC3)c(Cl)cc2F)c1=O (stereo not drawn) [I.7-4] | 100 | 100 | 100 | 100 | 100 | 100 | 80 | 100 | 100 | 100 | 100 | 100 | 100 | 100 | 100 | 100 | 100 | 100 | 100 | 100 | Post-emergence effect at 1.25 g/ha against VIOTR in % ([1]; 1.25 g/ha): 100%; Post-emergence effect at 5 g/ha against MATIN in % ([3]; 5 g/ha): 100%; Post-emergence effect at 20 g/ha against LOLRI in % [5]: 100%; Post-emergence effect at 1.25 g/ha against VERPE in % ([7]; 1.25 g/ha): 100%; Post-emergence effect at 5 g/ha against POLCO in % ([9]; 5 g/ha): 100%; Post-emergence effect at 1.25 g/ha against SETVI in % [11]: 100%; Post-emergence effect at 5 g/ha against SETVI in % [11]: 100%; Post-emergence effect at 20 g/ha against SETVI in % [11]: 100%; Post-emergence effect at 5 g/ha against DIGSA in % [12]: 100%; Post-emergence effect at 20 g/ha against DIGSA in % [12]: 100%; Post-emergence effect at 5 g/ha against ALOMY in % ([13]; 5 g/ha): 80%; Post-emergence effect at 20 g/ha against ALOMY in % ([13]; 20 g/ha): 100%; Post-emergence effect at 1.25 g/ha against TRZAS in % [14]: 20% |
| Cn1c(C(F)(F)F)cc(=O)n(-c2cc(Oc3cc(F)ccc3OCC(=O)OCC3CC3)c(Br)cc2F)c1=O [I.24-1] | 100 | 100 | 100 | 100 | 100 | 80 | 80 | 100 | 100 | 100 | 100 | 100 | 100 | 100 | 100 | 100 | 100 | 100 | 80 | 100 | Post-emergence effect at 1.25 g/ha against SETVI in % [11]: 90%; Post-emergence effect at 5 g/ha against SETVI in % [11]: 100%; Post-emergence effect at 20 g/ha against SETVI in % [11]: 100%; Post-emergence effect at 1.25 g/ha against DIGSA in % ([12]; 1.25 g/ha): 80%; Post-emergence effect at 5 g/ha against DIGSA in % [12]: 100%; Post-emergence effect at 20 g/ha against DIGSA in % [12]: 100%; Post-emergence effect at 1.25 g/ha against TRZAS in % [14]: 20% |
